Experimental data as given in PubChem BioAssay (NCI).
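1) Cells in 96-well plates. 2) Compound, 48 h, 5 concentrations. 3) Linear interpolation between surrounding doses. 4) Unreached endpoint = highest concentration. The concentration for 50% growth inhibition is given as GI50. Definition used: TGI = concentration required for complete inhibition of growth.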

How the values were obtained:
Assay in all cases: inhibition of tumour cell growth, NCI panel, 48 h
786-0 renal = system: 786-0 renal
A498 renal = system: A498 renal
A549 NSCLC = system: A549 NSCLC
ACHN renal = system: ACHN renal
BT-549 breast = system: BT-549 breast
COLO 205 colon = system: COLO 205 colon
DU-145 prostate = system: DU-145 prostate
EKVX NSCLC = system: EKVX NSCLC
HCT-116 colon = system: HCT-116 colon
HCT-15 colon = system: HCT-15 colon
HL-60(TB) leukemia = system: HL-60(TB) leukemia
HOP-62 NSCLC = system: HOP-62 NSCLC
HOP-92 NSCLC = system: HOP-92 NSCLC
HS 578T breast = system: HS 578T breast
HT29 colon = system: HT29 colon
IGROV1 ovarian = system: IGROV1 ovarian
K-562 leukemia = system: K-562 leukemia
KM12 colon = system: KM12 colon
LOX IMVI melanoma = system: LOX IMVI melanoma
M14 melanoma = system: M14 melanoma
MCF7 breast = system: MCF7 breast
MDA-MB-231 breast = system: MDA-MB-231 breast
MOLT-4 leukemia = system: MOLT-4 leukemia
NCI-H226 lung = system: NCI-H226 lung
NCI-H23 lung = system: NCI-H23 lung
NCI-H460 lung = system: NCI-H460 lung
NCI/ADR-RES ovarian = system: NCI/ADR-RES ovarian
OVCAR-5 ovarian = system: OVCAR-5 ovarian
OVCAR-8 ovarian = system: OVCAR-8 ovarian
PC-3 prostate = system: PC-3 prostate
RPMI-8226 leukemia = system: RPMI-8226 leukemia
RXF 393 renal = system: RXF 393 renal
SF-268 CNS = system: SF-268 CNS
SF-539 CNS = system: SF-539 CNS
SK-MEL-2 melanoma = system: SK-MEL-2 melanoma
SK-MEL-28 melanoma = system: SK-MEL-28 melanoma
SK-MEL-5 melanoma = system: SK-MEL-5 melanoma
SK-OV-3 ovarian = system: SK-OV-3 ovarian
SN12C renal = system: SN12C renal
SNB-19 CNS = system: SNB-19 CNS
SNB-75 CNS = system: SNB-75 CNS
SW-620 colon = system: SW-620 colon
TK-10 renal = system: TK-10 renal
U251 CNS = system: U251 CNS
UACC-257 melanoma = system: UACC-257 melanoma
UACC-62 melanoma = system: UACC-62 melanoma
UO-31 renal = system: UO-31 renal
MDA-MB-435 = system: MDA-MB-435

With `COc1ccc2c(c1)SC1=NNC(Cl)C(=O)N12` (configuration not stated) the GI50 (786-0 renal) was 33.2 µM, the TGI (786-0 renal) was > 100 µM and the GI50 (A498 renal) was 26.1 µM. The TGI (A498 renal) was 53.3 µM, the GI50 (A549 NSCLC) was 38.1 µM and the TGI (A549 NSCLC) was > 100 µM. The GI50 (ACHN renal) was 12.4 µM, the TGI (ACHN renal) was 26.3 µM and the GI50 (BT-549 breast) was 17.2 µM. It also gave a TGI (BT-549 breast) of 40.6 µM, a GI50 (COLO 205 colon) of 16.7 µM and a TGI (COLO 205 colon) of 44.3 µM. For the same compound, the GI50 (DU-145 prostate) was 12.8 µM, the TGI (DU-145 prostate) was 30.3 µM and the GI50 (EKVX NSCLC) was 10.5 µM. It also gave a TGI (EKVX NSCLC) of 29.1 µM, a GI50 (HCT-116 colon) of 24 µM and a TGI (HCT-116 colon) of 87.3 µM. For the same compound, the GI50 (HCT-15 colon) was 15.8 µM, the TGI (HCT-15 colon) was 38.4 µM and the GI50 (HL-60(TB) leukemia) was 33.9 µM. For the same compound, the TGI (HL-60(TB) leukemia) was > 100 µM, the GI50 (HOP-62 NSCLC) was 45.5 µM and the TGI (HOP-62 NSCLC) was > 100 µM. The GI50 (HOP-92 NSCLC) was 20.1 µM, the TGI (HOP-92 NSCLC) was 56.2 µM and the GI50 (HS 578T breast) was 40.4 µM. For the same compound, the TGI (HS 578T breast) was > 100 µM, the GI50 (HT29 colon) was 11.8 µM and the TGI (HT29 colon) was 35.1 µM. For the same compound, the GI50 (IGROV1 ovarian) was 25.2 µM, the TGI (IGROV1 ovarian) was > 100 µM and the GI50 (K-562 leukemia) was 35.3 µM. The TGI (K-562 leukemia) was > 100 µM, the GI50 (KM12 colon) was 20.7 µM and the TGI (KM12 colon) was 48 µM. The GI50 (LOX IMVI melanoma) was 16 µM, the TGI (LOX IMVI melanoma) was 37.4 µM and the GI50 (M14 melanoma) was 17.3 µM. The TGI (M14 melanoma) was 48.4 µM, the GI50 (MCF7 breast) was 24.5 µM and the TGI (MCF7 breast) was > 100 µM. It also gave a GI50 (MDA-MB-231 breast) of 15.3 µM, a TGI (MDA-MB-231 breast) of 35.6 µM and a GI50 (MOLT-4 leukemia) of 31.2 µM. The TGI (MOLT-4 leukemia) was > 100 µM, the GI50 (NCI-H226 lung) was 16.2 µM and the TGI (NCI-H226 lung) was 64.3 µM. The GI50 (NCI-H23 lung) was 18 µM, the TGI (NCI-H23 lung) was 39.6 µM and the GI50 (NCI-H460 lung) was 29.5 µM. The TGI (NCI-H460 lung) was > 100 µM, the GI50 (NCI/ADR-RES ovarian) was 19.8 µM and the TGI (NCI/ADR-RES ovarian) was 47.6 µM. The GI50 (OVCAR-5 ovarian) was 27.9 µM, the TGI (OVCAR-5 ovarian) was 94.1 µM and the GI50 (OVCAR-8 ovarian) was 21.5 µM. For the same compound, the TGI (OVCAR-8 ovarian) was 54.2 µM, the GI50 (PC-3 prostate) was 37 µM and the TGI (PC-3 prostate) was > 100 µM. It also gave a GI50 (RPMI-8226 leukemia) of 18.2 µM, a TGI (RPMI-8226 leukemia) of 54.1 µM and a GI50 (RXF 393 renal) of 18.4 µM. The TGI (RXF 393 renal) was 59.1 µM, the GI50 (SF-268 CNS) was 24.2 µM and the TGI (SF-268 CNS) was 62.1 µM. For the same compound, the GI50 (SF-539 CNS) was 15.6 µM, the TGI (SF-539 CNS) was 37.8 µM and the GI50 (SK-MEL-2 melanoma) was 42.1 µM. The TGI (SK-MEL-2 melanoma) was > 100 µM, the GI50 (SK-MEL-28 melanoma) was 13.7 µM and the TGI (SK-MEL-28 melanoma) was 35.2 µM. For the same compound, the GI50 (SK-MEL-5 melanoma) was 15.6 µM, the TGI (SK-MEL-5 melanoma) was 34 µM and the GI50 (SK-OV-3 ovarian) was 33 µM. The TGI (SK-OV-3 ovarian) was > 100 µM, the GI50 (SN12C renal) was 16.5 µM and the TGI (SN12C renal) was 37.3 µM. The GI50 (SNB-19 CNS) was 38.4 µM, the TGI (SNB-19 CNS) was > 100 µM and the GI50 (SNB-75 CNS) was 30.3 µM. The TGI (SNB-75 CNS) was 83.5 µM, the GI50 (SW-620 colon) was 21.8 µM and the TGI (SW-620 colon) was 65.7 µM. For the same compound, the GI50 (TK-10 renal) was 26.6 µM, the TGI (TK-10 renal) was 81.1 µM and the GI50 (U251 CNS) was 18.9 µM. It also gave a TGI (U251 CNS) of 45.1 µM, a GI50 (UACC-257 melanoma) of 18.2 µM and a TGI (UACC-257 melanoma) of 42.5 µM. It also gave a GI50 (UACC-62 melanoma) of 15.6 µM, a TGI (UACC-62 melanoma) of 36 µM and a GI50 (UO-31 renal) of 5.9 µM. The TGI (UO-31 renal) was > 100 µM.

Work on `CCCc1n(Cc2ccc3ccccc3c2)c2ccccc2[n+]1Cc1ccc2ccccc2c1` yielded a GI50 (786-0 renal) of 1.06 µM, a TGI (786-0 renal) of 2.56 µM and a GI50 (A498 renal) of 0.356 µM. The TGI (A498 renal) was 1.98 µM, the GI50 (A549 NSCLC) was 0.619 µM and the TGI (A549 NSCLC) was 2.04 µM. The GI50 (ACHN renal) was 1.25 µM, the TGI (ACHN renal) was 2.57 µM and the GI50 (DU-145 prostate) was 0.554 µM. For the same compound, the TGI (DU-145 prostate) was 1.85 µM, the GI50 (HT29 colon) was 0.323 µM and the TGI (HT29 colon) was 1.28 µM. The GI50 (MDA-MB-231 breast) was 0.301 µM, the TGI (MDA-MB-231 breast) was 1.42 µM and the GI50 (MDA-MB-435) was 0.314 µM. For the same compound, the TGI (MDA-MB-435) was 1.26 µM, the GI50 (NCI/ADR-RES ovarian) was 3.56 µM and the TGI (NCI/ADR-RES ovarian) was 53.9 µM. It also gave a GI50 (OVCAR-5 ovarian) of 0.544 µM, a TGI (OVCAR-5 ovarian) of 1.98 µM and a GI50 (PC-3 prostate) of 0.354 µM. For the same compound, the TGI (PC-3 prostate) was 1.55 µM, the GI50 (SK-MEL-28 melanoma) was 0.577 µM and the TGI (SK-MEL-28 melanoma) was 1.99 µM. It also gave a GI50 (SK-MEL-5 melanoma) of 0.161 µM, a TGI (SK-MEL-5 melanoma) of 0.311 µM and a GI50 (SK-OV-3 ovarian) of 0.488 µM. The TGI (SK-OV-3 ovarian) was 1.74 µM, the GI50 (SW-620 colon) was 0.429 µM and the TGI (SW-620 colon) was 1.7 µM. For the same compound, the GI50 (TK-10 renal) was 0.461 µM, the TGI (TK-10 renal) was 1.68 µM and the GI50 (UACC-257 melanoma) was 0.295 µM. It also gave a TGI (UACC-257 melanoma) of 1.12 µM, a GI50 (UACC-62 melanoma) of 0.318 µM and a TGI (UACC-62 melanoma) of 1.42 µM. The GI50 (UO-31 renal) was 1.49 µM and the TGI (UO-31 renal) was 3 µM.
